Data from patent publication US20220031596A1, “ANTI-AGING AGENT AND ANTI-AGING METHOD” (priority 2018, published 2022).

Tests used:
Format in all cases: in vivo, human
[1] = test system: thyroid-stimulating hormone concentration in the plasma; test: Evaluation of thyroid-stimulating hormone secretion promoting effect (plasma TSH, 24-week oral ingestion); conditions: for thyroid-stimulating hormone concentration in the plasma, 0 weeks (before ingestion) / thyroid-stimulating hormone concentration in the plasma, 24 weeks (after ingestion) / thyroid-stimulating hormone concentration in the plasma, Change rate (24 weeks - 0 weeks): High Dose Group (200 mg/daily, oral), mean±SD; for thyroid-stimulating hormone concentration in the plasma, 0 weeks (before ingestion): baseline
Experimental: In order to confirm a change in the thyroid-stimulating hormone quantity before and after ingestion of the nicotinamide mononucleotide, a test was conducted on healthy males and females aged 50 to 70 years.
As a sample of Working Example 4, a capsule formulation containing the nicotinamide mononucleotide and starch (200 mg of the nicotinamide mononucleotide in 4 capsules) (manufactured by SHINKOWA PHARMACEUTICAL Co., Ltd.) was used.
(§1) Each group consisting of five healthy males and females aged 50 to 70 years in an unbiased age group ingested the above capsule formulation once a day by 4 capsules for 24 weeks (total 10 subjects, 200 mg/daily ingestion). In order to conduct appropriate evaluations, those who had been regularly using medical products for chronic diseases, those who had been consuming healthy foods that may affect clinical research, and those who were currently participating in other clinical researches or clinical trials or had participated in other clinical researches or clinical trials within the last three months were excluded from the subject for the evaluation. The capsule formulations were ingested at 10 am (between meals and fasting state) together with water or lukewarm water (oral administration).
Measurement of the thyroid-stimulating hormone quantity in the plasma was conducted by requesting the measurement to an external public organization according to a usual method. FIGS. 8a to 8c indicate transitions of the thyroid-stimulating hormone concentration (μU/ml) in the plasma for 24 weeks. FIG. 8a represents the transitions of the whole subjects; FIG. 8b represents the transitions of the male subjects; FIG. 8c represents the transitions of the female subjects. Further, FIGS. 9a to 9c indicate change rates (%) of the blood thyroid-stimulating hormone concentration up to 24 weeks when the nicotinamide mononucleotide was orally administered to the subjects for 24 weeks. FIG. 9a represents the change rates of the whole subjects; FIG. 9b represents the change rates of the male subjects; FIG. 9c represents the change rates of the female subjects. Further, Table 4 indicates the numerical values of the thyroid-stimulating hormone concentration (μU/ml) in the plasma before the ingestion of the nicotinamide mononucleotide (0 weeks) and after the ingestion of the nicotinamide mononucleotide (24 weeks). Note that the numerical values represent mean values±standard deviation.

[2] = test system: calcitonin concentration in the plasma; test: Evaluation of calcitonin secretion promoting effect (plasma calcitonin, 24-week oral ingestion); conditions: for calcitonin concentration in the plasma, 0 weeks (before ingestion) / calcitonin concentration in the plasma, 24 weeks (after ingestion) / calcitonin concentration in the plasma, Change rate (24 weeks - 0 weeks): High Dose Group (200 mg/daily, oral), mean±SD; for calcitonin concentration in the plasma, 0 weeks (before ingestion): baseline
Experimental: In order to confirm a change in the calcitonin quantity before and after ingestion of the nicotinamide mononucleotide, a test was conducted on healthy males and females aged 50 to 70 years.
As a sample of Working Example 12, a capsule formulation containing the nicotinamide mononucleotide and starch (200 mg of the nicotinamide mononucleotide in 4 capsules) (manufactured by SHINKOWA PHARMACEUTICAL Co., Ltd.) was used.
as §1, with “above high dose” for “above”
Measurement of the calcitonin quantity in the plasma was conducted by requesting the measurement to an external public organization according to a usual method. FIGS. 24a to 24c indicate transitions of the calcitonin concentration (pg/ml) in the plasma for 24 weeks. FIG. 24a represents the transitions of the whole subjects; FIG. 24b represents the transitions of the male subjects; FIG. 24c represents the transitions of the female subjects. Further, FIGS. 25a to 25c indicate change rates (%) of the blood calcitonin concentration up to 24 weeks when the nicotinamide mononucleotide was orally administered to the subjects for 24 weeks. FIG. 25a represents the change rates of the whole subjects; FIG. 25b represents the change rates of the male subjects; FIG. 25c represents the change rates of the female subjects. Further, Table 11 indicates the numerical values of the calcitonin concentration (pg/ml) in the plasma before the ingestion of the nicotinamide mononucleotide (0 weeks) and after the ingestion of the nicotinamide mononucleotide (24 weeks). Note that the numerical values represent mean values±standard deviation.

[3] = test system: cortisol concentration in the plasma; test: Evaluation of cortisol secretion promoting effect (plasma cortisol, 24-week oral ingestion); conditions: for cortisol concentration in the plasma, 0 weeks (before ingestion) / cortisol concentration in the plasma, 24 weeks (after ingestion) / cortisol concentration in the plasma, Change rate (24 weeks - 0 weeks): High Dose Group (200 mg/daily, oral), mean±SD; for cortisol concentration in the plasma, 0 weeks (before ingestion): baseline
Experimental: In order to confirm a change in the cortisol quantity before and after ingestion of the nicotinamide mononucleotide, a test was conducted on healthy males and females aged 50 to 70 years.
As a sample of Working Example 11, a capsule formulation containing the nicotinamide mononucleotide and starch (200 mg of the nicotinamide mononucleotide in 4 capsules) (manufactured by SHINKOWA PHARMACEUTICAL Co., Ltd.) was used.
as §1, with “above high dose” for “above”
Measurement of the cortisol quantity in the plasma was conducted by requesting the measurement to an external public organization according to a usual method. FIGS. 22a to 22c indicate transitions of the cortisol concentration […] in the plasma for 24 weeks. FIG. 22a represents the transitions of the whole subjects; FIG. 22b represents the transitions of the male subjects; FIG. 22c represents the transitions of the female subjects. Further, FIGS. 23a to 23c indicate change rates (%) of the blood cortisol concentration up to 24 weeks when the nicotinamide mononucleotide was orally administered to the subjects for 24 weeks. FIG. 23a represents the change rates of the whole subjects; FIG. 23b represents the change rates of the male subjects; FIG. 23c represents the change rates of the female subjects. Further, Table 10 indicates the numerical values of the cortisol concentration (μg/dl) in the plasma before the ingestion of the nicotinamide mononucleotide (0 weeks) and after the ingestion of the nicotinamide mononucleotide (24 weeks). Note that the numerical values represent mean values±standard deviation.

## NC(=O)c1ccc[n+]([C@@H]2O[C@H](COP(=O)([O-])O)[C@@H](O)[C@H]2O)c1 [nicotinamide mononucleotide]
[1]; Female
  thyroid-stimulating hormone concentration in the plasma, 0 weeks (before ingestion): 2.56 ± 1.27 μU/ml
  thyroid-stimulating hormone concentration in the plasma, 24 weeks (after ingestion): 2.61 ± 1.15 μU/ml
  thyroid-stimulating hormone concentration in the plasma, Change rate (24 weeks - 0 weeks): 0.05 ± 0.98 μU/ml
[1]; Male
  thyroid-stimulating hormone concentration in the plasma, 0 weeks (before ingestion): 2.57 ± 1.65 μU/ml
  thyroid-stimulating hormone concentration in the plasma, 24 weeks (after ingestion): 2.97 ± 1.52 μU/ml
  thyroid-stimulating hormone concentration in the plasma, Change rate (24 weeks - 0 weeks): 0.40 ± 1.38 μU/ml
[1]; Whole Subjects
  thyroid-stimulating hormone concentration in the plasma, 0 weeks (before ingestion): 2.57 ± 1.39 μU/ml
  thyroid-stimulating hormone concentration in the plasma, 24 weeks (after ingestion): 2.79 ± 1.29 μU/ml
  thyroid-stimulating hormone concentration in the plasma, Change rate (24 weeks - 0 weeks): 0.23 ± 1.14 μU/ml
[1]; oral, 200 mg/daily, 24 weeks, FIGS. 8a-8c, 9a-9c
  thyroid-stimulating hormone concentrations in the plasma, effect of ingestion (in words): increased
[2]; Female
  calcitonin concentration in the plasma, 0 weeks (before ingestion): 0.60 ± 0.10 pg/mL
  calcitonin concentration in the plasma, 24 weeks (after ingestion): 0.71 ± 0.20 pg/mL
  calcitonin concentration in the plasma, Change rate (24 weeks - 0 weeks): 0.11 ± 0.10 pg/mL
[2]; Male
  calcitonin concentration in the plasma, 0 weeks (before ingestion): 2.35 ± 1.97 pg/mL
  calcitonin concentration in the plasma, 24 weeks (after ingestion): 2.44 ± 2.21 pg/mL
  calcitonin concentration in the plasma, Change rate (24 weeks - 0 weeks): 0.09 ± 0.37 pg/mL
[2]; Whole Subjects
  calcitonin concentration in the plasma, 0 weeks (before ingestion): 1.48 ± 1.61 pg/mL
  calcitonin concentration in the plasma, 24 weeks (after ingestion): 1.58 ± 1.74 pg/mL
  calcitonin concentration in the plasma, Change rate (24 weeks - 0 weeks): 0.10 ± 0.25 pg/mL
[2]; oral, 200 mg/daily, 24 weeks, FIGS. 24a-24c, 25a-25c
  calcitonin concentrations in the plasma, effect of ingestion (in words): increased
[3]; Female
  cortisol concentration in the plasma, 0 weeks (before ingestion): 6.82 ± 1.20 µg/dL
  cortisol concentration in the plasma, 24 weeks (after ingestion): 10.56 ± 5.92 µg/dL
  cortisol concentration in the plasma, Change rate (24 weeks - 0 weeks): 3.74 ± 6.16 µg/dL
[3]; Male
  cortisol concentration in the plasma, 0 weeks (before ingestion): 7.97 ± 2.50 µg/dL
  cortisol concentration in the plasma, 24 weeks (after ingestion): 10.30 ± 4.47 µg/dL
  cortisol concentration in the plasma, Change rate (24 weeks - 0 weeks): 2.33 ± 3.38 µg/dL
[3]; Whole Subjects
  cortisol concentration in the plasma, 0 weeks (before ingestion): 7.40 ± 1.94 µg/dL
  cortisol concentration in the plasma, 24 weeks (after ingestion): 10.43 ± 4.95 µg/dL
  cortisol concentration in the plasma, Change rate (24 weeks - 0 weeks): 3.04 ± 4.74 µg/dL
[3]; oral, 200 mg/daily, 24 weeks, FIGS. 22a-22c, 23a-23c
  cortisol concentrations in the plasma, effect of ingestion (in words): increased
